Assay results: patent US12168650B2, “Crystalline forms of 3-(5-(2-hydroxy-2-methylpropoxy)-6-methylpyrazin-2-yl)-1H-indole-7-carbonitrile” (NIDO BIOSCIENCES, INC., priority 2022, dated 2024)

How the values were obtained:
[1] = Bulk stability of Form C over 1 week; type: physicochemical; conditions: for Bulk (XRPD) / Color / Purity, Bulk (HPLC): Solid state
Description: Bulk stability of Form C was evaluated at 25° C./92% RH in an open container, at 40° C./75% RH in an open container and at 60° C. in a tight container over 1 week.

[2] = Hygroscopicity by dynamic vapor sorption (DVS); type: physicochemical
Description: Dynamic vapor sorption (DVS) was performed on an Intrinsic, Advantage or Adventure with an oven temperature of 25° C. using water as a solvent. The sample mass was about 5-10 mg using the following method: • Cycle: 40-0-95-0-40% RH • Stage Step: 10% • Equilibrium: 0.002 dm/dt (%/min) • Minimum dm/dt stability duration: 60 min • Maximum dm/dt stage time: 360 min. Analysis of Polymorphs
Hygroscopicity of Form C was evaluated by dynamic vapor sorption (DVS) test at 25° C. Form C is non-hygroscopic below 90% relative humidity (RH). Form C absorbs about 0.2% water in 95% RH at 25° C.

[3] = Solubility in aqueous media at 37° C.; type: physicochemical; conditions: for XRPD of residual solids: 24 h; for solubility at 2 h / solubility at 24 h: thermodynamic from solid
Description: The anhydrate Form C (equivalent to 8 mg of free form) was weighed into a 20 mL glass vial. 4 mL of solubility medium was added. Obtained suspensions were stirred at 37° C. at 400 rpm. Some of the suspensions were taken out at 2 hours and 24 hours, respectively. Then they were centrifuged at 3700 at 14,000 rpm for 5 (m. Supernatants were analyzed by HPLC and pH meter for solubility and pH, respectively. Residual solids (wet cakes) were characterized by XRPD to determine physical form.

[4] = Stability of Form C (Tables 5A-5F); type: physicochemical
[5] = Competitive equilibration experiments of anhydrates; conditions: at both 25° C. and 50° C.
Description: Relative stability of the anhydrate Forms A, C, H and J was investigated with competitive equilibration experiments.
Relative stability of the anhydrates Forms C, K and L was investigated with competitive equilibration experiments.
To determine relative stability of anhydrates, competitive equilibration experiments were conducted in different solvent systems.
About 2 mg of each anhydrate was added to 0.3-0.4 mL saturated solutions of selected solvents. Obtained suspensions were stirred at 25° C. for 3-10 days, respectively. Solid parts (wet cakes) were isolated by centrifugation filtration and investigated by XRPD.

[6] = 25° C./92% RH, open container, 1 week
[7] = 40° C./75% RH, open container, 1 week
[8] = 60° C., tight container, 1 week
[9] = pH 7.0 phosphate buffer (50 mM)
[10] = aqueous buffer, pH 3.0 citrate buffer (50 mM)
[11] = aqueous buffer, pH 5.0 acetate buffer (50 mM)
[12] = aqueous buffer, pH 7.0 phosphate buffer (50 mM)
[13] = simulated gastric fluid, pH 1.0 HCl solution (0.1N)

Cc1nc(-c2c[nH]c3c(C#N)cccc23)cnc1OCC(C)(C)O [Form C, 3-(5-(2-hydroxy-2-methylpropoxy)-6-methylpyrazin-2-yl)-1H-indole-7-carbonitrile]
0.70 area %: Impurities, HPLC: RRT 1.07 ([4]; 40° C./75% RH, 01 Month)
3.1: 24 h (pH) of supernatant ([3]; pH 3.0 citrate buffer (50 mM))
0.71 area %: Impurities, HPLC: RRT 1.07 ([4]; 25° C./60% RH, 01 Month)
99.4 wt %: Assay, HPLC ([4]; 25° C./60% RH, 09 Month) | Assay, HPLC ([4]; 25° C./60% RH, 12 Month) | Assay, HPLC ([4]; 40° C./75% RH, Initial)
98.7 wt %: Assay, HPLC ([4]; 40° C./75% RH, 03 Month)
5.44 µg/mL: solubility at 2 h [3, 11]
99.2 area %: Purity, HPLC ([4]; 25° C./60% RH, 03 Month) | Purity, HPLC ([4]; 25° C./60% RH, Initial) | Purity, HPLC ([4]; 40° C./75% RH, 03 Month) | Purity, HPLC ([4]; 40° C./75% RH, Initial)
5.43 µg/mL: solubility at 2 h [3, 12]
99.1%: Purity, Bulk (HPLC) [1, 7]
11.6 µg/mL: solubility at 24 h [3, 12]
physically and chemically stable: Bulk stability ([1]; 25° C./92% RH open, 40° C./75% RH open, 60° C. tight container, 1 week)
14.6 µg/mL: solubility at 24 h [3, 13]
0.77 area %: Impurities, HPLC: RRT 1.07 ([4]; 25° C./60% RH, 03 Month) | Impurities, HPLC: RRT 1.07 ([4]; 25° C./60% RH, Initial) | Impurities, HPLC: RRT 1.07 ([4]; 40° C./75% RH, 03 Month) | Impurities, HPLC: RRT 1.07 ([4]; 40° C./75% RH, Initial)
3.85 µg/mL: solubility at 24 h [3, 11]
4.08 µg/mL: solubility at 24 h [3, 10]
stable: Stability ([4]; conditions where the temperature and relative humidity are altered)
17 µg/mL: solubility at 2 h [3, 13]
99.7 wt %: Assay, HPLC ([4]; 40° C./75% RH, 01 Month)
still in Form C: Form after the DVS test ([2]; DVS at 25° C.)
99.2%: Purity, Bulk (HPLC) [1, 6] | Purity, Bulk (HPLC) [1, 8] | Initial purity ([1]; before stress)
Form C: Bulk (XRPD) [1, 6] | Bulk (XRPD) [1, 7] | Bulk (XRPD) [1, 8] | XRPD of residual solids ([3]; pH 1.0 HCl solution (0.1N)) | XRPD of residual solids ([3]; pH 3.0 citrate buffer (50 mM)) | XRPD of residual solids ([3]; pH 5.0 acetate buffer (50 mM)) | XRPD of residual solids [3, 9]
99.3 area %: Purity, HPLC ([4]; 25° C./60% RH, 01 Month) | Purity, HPLC ([4]; 25° C./60% RH, 06 Month) | Purity, HPLC ([4]; 25° C./60% RH, 09 Month) | Purity, HPLC ([4]; 25° C./60% RH, 12 Month) | Purity, HPLC ([4]; 40° C./75% RH, 01 Month) | Purity, HPLC ([4]; 40° C./75% RH, 06 Month)
non-hygroscopic: Hygroscopicity ([2]; DVS at 25° C., below 90% relative humidity (RH))
1.0: 24 h (pH) of supernatant ([3]; pH 1.0 HCl solution (0.1N))
5.1: 24 h (pH) of supernatant ([3]; pH 5.0 acetate buffer (50 mM))
7.3: 24 h (pH) of supernatant [3, 9]
<0.05 area %: Impurities, HPLC: A ([4]; 25° C./60% RH, 01 Month) | Impurities, HPLC: B ([4]; 25° C./60% RH, 01 Month) | Impurities, HPLC: C ([4]; 25° C./60% RH, 01 Month) | Impurities, HPLC: D ([4]; 25° C./60% RH, 01 Month) | Impurities, HPLC: SM1 ([4]; 25° C./60% RH, 01 Month) | Impurities, HPLC: SM2 ([4]; 25° C./60% RH, 01 Month) | Impurities, HPLC: Unidentified impurity ([4]; 25° C./60% RH, 01 Month) | Impurities, HPLC: A ([4]; 25° C./60% RH, 03 Month) | Impurities, HPLC: B ([4]; 25° C./60% RH, 03 Month) | Impurities, HPLC: C ([4]; 25° C./60% RH, 03 Month) | Impurities, HPLC: D ([4]; 25° C./60% RH, 03 Month) | Impurities, HPLC: SM1 ([4]; 25° C./60% RH, 03 Month) | Impurities, HPLC: SM2 ([4]; 25° C./60% RH, 03 Month) | Impurities, HPLC: Unidentified impurity ([4]; 25° C./60% RH, 03 Month) | Impurities, HPLC: A ([4]; 25° C./60% RH, 06 Month) | Impurities, HPLC: B ([4]; 25° C./60% RH, 06 Month) | Impurities, HPLC: C ([4]; 25° C./60% RH, 06 Month) | Impurities, HPLC: D ([4]; 25° C./60% RH, 06 Month) | Impurities, HPLC: SM1 ([4]; 25° C./60% RH, 06 Month) | Impurities, HPLC: SM2 ([4]; 25° C./60% RH, 06 Month) | Impurities, HPLC: Unidentified impurity ([4]; 25° C./60% RH, 06 Month) | Impurities, HPLC: A ([4]; 25° C./60% RH, 09 Month) | Impurities, HPLC: B ([4]; 25° C./60% RH, 09 Month) | Impurities, HPLC: C ([4]; 25° C./60% RH, 09 Month) | Impurities, HPLC: D ([4]; 25° C./60% RH, 09 Month) | Impurities, HPLC: SM1 ([4]; 25° C./60% RH, 09 Month) | Impurities, HPLC: SM2 ([4]; 25° C./60% RH, 09 Month) | Impurities, HPLC: Unidentified impurity ([4]; 25° C./60% RH, 09 Month) | Impurities, HPLC: A ([4]; 25° C./60% RH, 12 Month) | Impurities, HPLC: B ([4]; 25° C./60% RH, 12 Month) | Impurities, HPLC: C ([4]; 25° C./60% RH, 12 Month) | Impurities, HPLC: D ([4]; 25° C./60% RH, 12 Month) | Impurities, HPLC: SM1 ([4]; 25° C./60% RH, 12 Month) | Impurities, HPLC: SM2 ([4]; 25° C./60% RH, 12 Month) | Impurities, HPLC: Unidentified impurity ([4]; 25° C./60% RH, 12 Month) | Impurities, HPLC: A ([4]; 25° C./60% RH, Initial) | Impurities, HPLC: B ([4]; 25° C./60% RH, Initial) | Impurities, HPLC: C ([4]; 25° C./60% RH, Initial) | Impurities, HPLC: D ([4]; 25° C./60% RH, Initial) | Impurities, HPLC: SM1 ([4]; 25° C./60% RH, Initial) | Impurities, HPLC: SM2 ([4]; 25° C./60% RH, Initial) | Impurities, HPLC: Unidentified impurity ([4]; 25° C./60% RH, Initial) | Impurities, HPLC: A ([4]; 40° C./75% RH, 01 Month) | Impurities, HPLC: B ([4]; 40° C./75% RH, 01 Month) | Impurities, HPLC: C ([4]; 40° C./75% RH, 01 Month) | Impurities, HPLC: D ([4]; 40° C./75% RH, 01 Month) | Impurities, HPLC: SM1 ([4]; 40° C./75% RH, 01 Month) | Impurities, HPLC: SM2 ([4]; 40° C./75% RH, 01 Month) | Impurities, HPLC: Unidentified impurity ([4]; 40° C./75% RH, 01 Month) | Impurities, HPLC: A ([4]; 40° C./75% RH, 03 Month) | Impurities, HPLC: B ([4]; 40° C./75% RH, 03 Month) | Impurities, HPLC: C ([4]; 40° C./75% RH, 03 Month) | Impurities, HPLC: D ([4]; 40° C./75% RH, 03 Month) | Impurities, HPLC: SM1 ([4]; 40° C./75% RH, 03 Month) | Impurities, HPLC: SM2 ([4]; 40° C./75% RH, 03 Month) | Impurities, HPLC: Unidentified impurity ([4]; 40° C./75% RH, 03 Month) | Impurities, HPLC: A ([4]; 40° C./75% RH, 06 Month) | Impurities, HPLC: B ([4]; 40° C./75% RH, 06 Month) | Impurities, HPLC: C ([4]; 40° C./75% RH, 06 Month) | Impurities, HPLC: D ([4]; 40° C./75% RH, 06 Month) | Impurities, HPLC: SM1 ([4]; 40° C./75% RH, 06 Month) | Impurities, HPLC: SM2 ([4]; 40° C./75% RH, 06 Month) | Impurities, HPLC: Unidentified impurity ([4]; 40° C./75% RH, 06 Month) | Impurities, HPLC: A ([4]; 40° C./75% RH, Initial) | Impurities, HPLC: B ([4]; 40° C./75% RH, Initial) | Impurities, HPLC: C ([4]; 40° C./75% RH, Initial) | Impurities, HPLC: D ([4]; 40° C./75% RH, Initial) | Impurities, HPLC: SM1 ([4]; 40° C./75% RH, Initial) | Impurities, HPLC: SM2 ([4]; 40° C./75% RH, Initial) | Impurities, HPLC: Unidentified impurity ([4]; 40° C./75% RH, Initial)
<0.05 wt %: Water content ([4]; 25° C./60% RH, 01 Month) | Water content ([4]; 25° C./60% RH, 03 Month) | Water content ([4]; 25° C./60% RH, 06 Month) | Water content ([4]; 25° C./60% RH, 09 Month) | Water content ([4]; 25° C./60% RH, 12 Month) | Water content ([4]; 25° C./60% RH, Initial) | Water content ([4]; 40° C./75% RH, 01 Month) | Water content ([4]; 40° C./75% RH, 03 Month) | Water content ([4]; 40° C./75% RH, 06 Month) | Water content ([4]; 40° C./75% RH, Initial)
No color change: Color [1, 6] | Color [1, 7] | Color [1, 8]
thermodynamically stable anhydrate: Relative thermodynamic stability of anhydrates [5]
0.72 area %: Impurities, HPLC: RRT 1.07 ([4]; 25° C./60% RH, 09 Month)
0.73 area %: Impurities, HPLC: RRT 1.07 ([4]; 25° C./60% RH, 06 Month) | Impurities, HPLC: RRT 1.07 ([4]; 40° C./75% RH, 06 Month)
99.1 wt %: Assay, HPLC ([4]; 40° C./75% RH, 06 Month)
0.74 area %: Impurities, HPLC: RRT 1.07 ([4]; 25° C./60% RH, 12 Month)
5.97 µg/mL: solubility at 2 h [3, 10]
about 0.2%: Water absorbed ([2]; DVS, 95% RH at 25° C.)
